Key:
[1] = molecular target: T1, porcine pancreatic lipase (PPL) (Sus scrofa, UniProt P00591); assay: Enzymatic degradation of PS80 by PPL (RP-ELSD, HIAC); type: biochemical
T1 construct: purchased Sigma Aldrich Inc. (St. Louis, Mo.)
T1 sequence (P00591 1-450): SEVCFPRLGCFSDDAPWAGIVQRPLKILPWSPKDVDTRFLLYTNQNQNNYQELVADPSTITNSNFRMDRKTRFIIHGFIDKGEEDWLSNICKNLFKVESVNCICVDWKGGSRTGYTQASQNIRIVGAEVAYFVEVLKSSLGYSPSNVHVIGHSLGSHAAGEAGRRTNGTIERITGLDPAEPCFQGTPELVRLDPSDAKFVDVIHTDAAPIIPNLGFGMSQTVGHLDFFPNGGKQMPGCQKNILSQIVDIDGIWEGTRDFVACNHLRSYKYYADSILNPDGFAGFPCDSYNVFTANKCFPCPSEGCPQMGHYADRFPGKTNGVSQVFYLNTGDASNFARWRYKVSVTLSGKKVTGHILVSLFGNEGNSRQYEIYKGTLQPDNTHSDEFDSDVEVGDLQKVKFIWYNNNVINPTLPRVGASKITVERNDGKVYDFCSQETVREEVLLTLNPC
Protocol: Subvisible particles were measured using a HIAC 9703 particle counter equipped with an HRDL-150 detector and a 1 mL syringe. Performance of the instrument was verified with NIST-traceable 2 μm Polystyrene bead standards at 3000 counts/mL before each measurement session. The HIAC instrument was configured to a 10 mL/min flow rate, 0.1 mL tare volume, and 0.4 mL sample volume. The samples were analyzed using 4 runs of 0.4 mL sips, with the first run of each sample was discarded to prevent measurement error due to sample carryover. Results were reported as the average values for 1.4, 2, 5, 10, 15, and 25, 50 μm analysis filter sizes.
Polysorbate concentration was determined using reverse phase ultra-performance liquid chromatography using evaporative light scattering detection (RP-ELSD). Samples were analyzed using an Agilent 1100 series high performance liquid chromatography system (HPLC) fitted with a Waters Oasis MAX cartridge column (20×2.1 mm, 30 μm particle size). […] In order to quantitate the PS20 concentration, a standard curve was generated by injecting 20 μL of solutions containing between 0% w/v and 0.4% w/v PS20. For excipients which affected the migration time of PS20 through the column, PS20 standard curve solutions containing the relevant excipient were included in the analysis to facilitate accurate quantitation. […]

PPL enzyme = molecular target: T2, PPL enzyme (Sus scrofa, UniProt P00591); assay: PPL degradation of PS20 in mAb, BsAb and sFAb samples, PS20 by RP-ELSD; type: biochemical, porcine; settings: 5% and 15% HPβCD, BsAb, sFAb 20 mg/mL and control, 0.02% PS20, 20 mM histidine acetate pH 5.5, 15 μg/mL PPL 4.5 hours
T2 construct: purchased Sigma Aldrich Inc. (St. Louis, Mo.)
T2 sequence (P00591 1-450): T1 sequence (P00591 1-450)
Protocol: (§1) Polysorbate concentration was determined using reverse phase ultra-performance liquid chromatography using evaporative light scattering detection (RP-ELSD). Samples were analyzed using an Agilent 1100 series high performance liquid chromatography system (HPLC) fitted with a Waters Oasis MAX cartridge column (20×2.1 mm, 30 μm particle size). The HPLC system was set up with a switching valve directing column flow-through to either waste or a Varian 380-LC evaporative light scattering detector set to 100° C. The mobile phases consisted of 2% formic acid in water (Pump A) and 2% formic acid in isopropanol (Pump B). […] In order to quantitate the PS20 concentration, a standard curve was generated by injecting 20 μL of solutions containing between 0% w/v and 0.4% w/v PS20. For excipients which affected the migration time of PS20 through the column, PS20 standard curve solutions containing the relevant excipient were included in the analysis to facilitate accurate quantitation.
The impact of various protein molecule classes (e.g., monoclonal antibody (mAb), single-Fab antibody (sFAb), and bispecific antibody(BsAb)) was assessed on the ability of cyclodextrins to decrease enzymatic PS20 degradation. […] Each sample was analyzed for PS20 concentration using high performance liquid chromatography with an inline evaporative light scattering detector. […]

[2] = molecular target: T1, porcine pancreatic lipase (PPL); assay: Kinetics of enzymatic PS20 degradation by PPL; type: biochemical; settings: 15% sucrose; 0.02% (w/v) PS20; 15 μg/mL PPL, about 25° C., 180 hours
Protocol: as §1, with “B). The pump gradient was isocratic at 10% pump B during equilibration, linear to 20% pump B for 1 minute, isocratic at 20% pump B for 2.4 minutes, linear to 100% pump B for 0.1 minutes, isocratic at 100% pump B for 1.1 minutes, linear to 10% pump B for 0.1 minutes, and finally isocratic at 10% pump B for 1.9 minutes.” for “B).”, “quantitation. […]” for “quantitation.”

Compound: 2-hydroxypropyl-β-cyclodextrin [HP-β-CD]
- subvisible particulates (SVP/mL) after PPL degradation of PS80 ([1]; 15% (w/v) HP-β-CD vs 0%, ≥1.4 to ≥25 micron, HIAC): fewer SVP/mL
- decrease in PS80 ([1]; 15% (w/v) HP-β-CD, 0.02% (w/v) PS80, pH 5.5, 15 μg/mL PPL, 5 hours, room temperature): approximately 4%
- mitigation of catalytic PS20 degradation across molecular formats (in words) (PPL enzyme): equally effective at mitigating catalytic PS20 degradation

Compound: OC[C@H]1O[C@@](CO)(O[C@H]2O[C@H](CO)[C@@H](O)[C@H](O)[C@H]2O)[C@@H](O)[C@@H]1O [sucrose, reference compound]
- plateau of PS20 degradation curve [2]: 44%
